Reference: publication PMC5562879, “Reduction of the off-pathway iron-sulphur cluster N1a of Escherichia coli respiratory complex I restrains NAD^+ dissociation” (Scientific Reports, 2017)

Columns and labels:
[1] = target: T1, E. coli respiratory complex I (NADH:ubiquinone oxidoreductase) (Escherichia coli, UniProt P31979); experiment: NADH:ferricyanide oxidoreductase assay, NADH oxidation at […] nm, Lineweaver-Burk secondary plots; format: biochemical; details: reaction started by enzyme (oxidised enzyme), ferricyanide 0.25-2 mM, pH 6.0, 30 °C, ping-pong-pong with double substrate inhibition, competitive with ferricyanide at the reduced
T1 construct: gene nuoF; whole complex from the nuo operon, His-tagged NuoF, overproduced in E. coli, DDM-solubilised, purified by anion exchange, Ni-IDA and Source Q; with NADH-quinone oxidoreductase subunit E; NADH-quinone oxidoreductase subunit G; NADH-quinone oxidoreductase subunit C/D; NADH-quinone oxidoreductase subunit B; NADH-quinone oxidoreductase subunit I; NADH-quinone oxidoreductase subunit A; NADH-quinone oxidoreductase subunit H; NADH-quinone oxidoreductase subunit J; NADH-quinone oxidoreductase subunit K; NADH-quinone oxidoreductase subunit L; NADH-quinone oxidoreductase subunit M; NADH-quinone oxidoreductase subunit N
T1 sequence (P0AFD1 whole entry V96P/N142M, form open, one chain of several): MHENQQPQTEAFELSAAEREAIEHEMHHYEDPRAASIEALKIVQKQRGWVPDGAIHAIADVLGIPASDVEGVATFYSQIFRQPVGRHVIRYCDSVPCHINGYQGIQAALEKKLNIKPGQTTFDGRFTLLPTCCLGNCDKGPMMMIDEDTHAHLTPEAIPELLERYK

[2] = target: T2, E. coli respiratory complex I (NADH:ubiquinone oxidoreductase) (Escherichia coli, UniProt P31979); experiment: as above; format: biochemical; details: reaction started by enzyme (oxidised enzyme), ferricyanide 0.25-2 mM, pH 6.0, 30 °C, ping-pong-pong with double substrate inhibition, competitive with ferricyanide at the reduced; remark: listed apart in the source
T2 construct: gene nuoF; whole complex from the nuo operon, His-tagged NuoF, overproduced in E. coli, DDM-solubilised, purified by anion exchange, Ni-IDA and Source Q; with NADH-quinone oxidoreductase subunit E; NADH-quinone oxidoreductase subunit G; NADH-quinone oxidoreductase subunit C/D; NADH-quinone oxidoreductase subunit B; NADH-quinone oxidoreductase subunit I; NADH-quinone oxidoreductase subunit A; NADH-quinone oxidoreductase subunit H; NADH-quinone oxidoreductase subunit J; NADH-quinone oxidoreductase subunit K; NADH-quinone oxidoreductase subunit L; NADH-quinone oxidoreductase subunit M; NADH-quinone oxidoreductase subunit N
T2 sequence (P31979 1-445): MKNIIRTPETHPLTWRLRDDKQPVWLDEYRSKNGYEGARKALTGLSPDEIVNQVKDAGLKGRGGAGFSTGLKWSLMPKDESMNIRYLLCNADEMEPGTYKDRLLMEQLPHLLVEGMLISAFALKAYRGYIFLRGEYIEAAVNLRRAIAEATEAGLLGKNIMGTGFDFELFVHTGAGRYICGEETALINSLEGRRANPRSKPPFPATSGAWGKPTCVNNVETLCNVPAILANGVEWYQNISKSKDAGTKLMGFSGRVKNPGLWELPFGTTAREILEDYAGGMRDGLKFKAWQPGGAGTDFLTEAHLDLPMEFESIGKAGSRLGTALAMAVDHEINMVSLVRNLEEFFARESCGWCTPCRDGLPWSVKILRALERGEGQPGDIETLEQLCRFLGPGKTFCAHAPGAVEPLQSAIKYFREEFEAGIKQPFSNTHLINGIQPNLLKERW
T2 sequence (P0AFD1 1-166 partner): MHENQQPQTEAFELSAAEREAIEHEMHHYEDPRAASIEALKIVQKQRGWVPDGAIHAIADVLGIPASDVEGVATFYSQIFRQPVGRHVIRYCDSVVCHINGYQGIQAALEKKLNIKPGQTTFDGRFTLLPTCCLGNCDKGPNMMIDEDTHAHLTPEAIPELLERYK
T2 sequence (P33602 2-908 partner): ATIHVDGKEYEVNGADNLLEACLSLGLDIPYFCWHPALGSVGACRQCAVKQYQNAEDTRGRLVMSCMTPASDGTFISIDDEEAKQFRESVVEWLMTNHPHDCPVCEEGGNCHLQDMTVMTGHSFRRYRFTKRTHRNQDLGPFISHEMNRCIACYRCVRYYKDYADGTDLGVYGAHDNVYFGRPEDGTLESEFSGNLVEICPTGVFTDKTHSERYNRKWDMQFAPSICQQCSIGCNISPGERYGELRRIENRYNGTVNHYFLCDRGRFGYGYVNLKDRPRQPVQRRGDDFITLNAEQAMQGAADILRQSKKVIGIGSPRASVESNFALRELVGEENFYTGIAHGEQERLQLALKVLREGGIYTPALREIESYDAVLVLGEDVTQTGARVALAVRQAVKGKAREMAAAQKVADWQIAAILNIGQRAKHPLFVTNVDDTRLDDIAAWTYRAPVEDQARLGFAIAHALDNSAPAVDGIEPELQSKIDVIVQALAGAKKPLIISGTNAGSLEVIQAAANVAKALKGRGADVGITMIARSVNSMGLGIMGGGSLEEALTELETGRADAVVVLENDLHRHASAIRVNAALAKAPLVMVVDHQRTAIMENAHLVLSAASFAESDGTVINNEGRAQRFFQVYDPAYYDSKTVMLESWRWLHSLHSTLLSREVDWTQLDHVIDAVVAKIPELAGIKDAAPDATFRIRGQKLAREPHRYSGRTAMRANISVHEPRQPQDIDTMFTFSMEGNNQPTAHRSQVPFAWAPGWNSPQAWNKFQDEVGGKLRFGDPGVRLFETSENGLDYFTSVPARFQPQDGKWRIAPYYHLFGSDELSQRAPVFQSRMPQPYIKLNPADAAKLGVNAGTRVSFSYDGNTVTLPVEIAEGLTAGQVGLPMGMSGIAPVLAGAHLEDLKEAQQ

[3] = target: T1, E. coli respiratory complex I (NADH:ubiquinone oxidoreductase); experiment: as above; format: biochemical; details: reaction started by enzyme (oxidised enzyme); ferricyanide 0.25-2 mM; pH 6.0, 30 °C; ping-pong-pong with double substrate inhibition; read-out: Km, app. ^NADH
[4] = target: T1, E. coli respiratory complex I (NADH:ubiquinone oxidoreductase); experiment: as above; format: biochemical; details: reaction started by enzyme (oxidised enzyme); pH 6.0, 30 °C; off-rate derived from steady-state kinetics, not a Kd
[5] = target: T2, E. coli respiratory complex I (NADH:ubiquinone oxidoreductase); experiment: as above; format: biochemical; details: reaction started by enzyme (oxidised enzyme); pH 6.0, 30 °C; off-rate derived from steady-state kinetics, not a Kd; remark: listed apart in the source
[6] = target: T3, T. thermophilus complex I (Thermus thermophilus, UniProt Q56222); experiment: d-NADH:ferricyanide oxidoreductase activity of cytoplasmic membranes, […] nm; format: biochemical; details: ferricyanide as acceptor; 50 mM Bis-Tris, pH 7.3 (Figure 1 legend), 60 °C
T3 construct: gene nqo1; native complex in isolated T. thermophilus cytoplasmic membranes; with NADH-quinone oxidoreductase subunit 2; NADH-quinone oxidoreductase subunit 3; NADH-quinone oxidoreductase subunit 4; NADH-quinone oxidoreductase subunit 5; NADH-quinone oxidoreductase subunit 6; NADH-quinone oxidoreductase subunit 7; NADH-quinone oxidoreductase subunit 8; NADH-quinone oxidoreductase subunit 9; NADH-quinone oxidoreductase subunit 10; NADH-quinone oxidoreductase subunit 11; NADH-quinone oxidoreductase subunit 12; NADH-quinone oxidoreductase subunit 13; NADH-quinone oxidoreductase subunit 14; NADH-quinone oxidoreductase subunit 15; NADH-quinone oxidoreductase subunit 16
T3 sequence (Q56222 1-438): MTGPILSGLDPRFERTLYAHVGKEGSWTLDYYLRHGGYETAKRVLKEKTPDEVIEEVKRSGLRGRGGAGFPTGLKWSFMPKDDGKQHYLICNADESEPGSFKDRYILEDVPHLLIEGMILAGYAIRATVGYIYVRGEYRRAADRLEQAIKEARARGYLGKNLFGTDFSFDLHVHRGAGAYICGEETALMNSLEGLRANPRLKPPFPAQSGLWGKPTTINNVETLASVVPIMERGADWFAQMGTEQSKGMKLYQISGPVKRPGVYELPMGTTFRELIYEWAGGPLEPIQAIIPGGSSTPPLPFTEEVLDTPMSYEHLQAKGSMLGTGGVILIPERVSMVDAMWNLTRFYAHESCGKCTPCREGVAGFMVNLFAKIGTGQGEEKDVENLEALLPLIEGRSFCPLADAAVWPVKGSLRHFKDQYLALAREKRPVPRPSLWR
T3 sequence (Q56221 2-181 partner): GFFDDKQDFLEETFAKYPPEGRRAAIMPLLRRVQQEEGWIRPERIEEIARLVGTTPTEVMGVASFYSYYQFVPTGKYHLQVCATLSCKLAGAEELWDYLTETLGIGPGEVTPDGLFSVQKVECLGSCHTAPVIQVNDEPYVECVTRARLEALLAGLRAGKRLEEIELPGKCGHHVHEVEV
T3 sequence (Q56223 1-783 partner): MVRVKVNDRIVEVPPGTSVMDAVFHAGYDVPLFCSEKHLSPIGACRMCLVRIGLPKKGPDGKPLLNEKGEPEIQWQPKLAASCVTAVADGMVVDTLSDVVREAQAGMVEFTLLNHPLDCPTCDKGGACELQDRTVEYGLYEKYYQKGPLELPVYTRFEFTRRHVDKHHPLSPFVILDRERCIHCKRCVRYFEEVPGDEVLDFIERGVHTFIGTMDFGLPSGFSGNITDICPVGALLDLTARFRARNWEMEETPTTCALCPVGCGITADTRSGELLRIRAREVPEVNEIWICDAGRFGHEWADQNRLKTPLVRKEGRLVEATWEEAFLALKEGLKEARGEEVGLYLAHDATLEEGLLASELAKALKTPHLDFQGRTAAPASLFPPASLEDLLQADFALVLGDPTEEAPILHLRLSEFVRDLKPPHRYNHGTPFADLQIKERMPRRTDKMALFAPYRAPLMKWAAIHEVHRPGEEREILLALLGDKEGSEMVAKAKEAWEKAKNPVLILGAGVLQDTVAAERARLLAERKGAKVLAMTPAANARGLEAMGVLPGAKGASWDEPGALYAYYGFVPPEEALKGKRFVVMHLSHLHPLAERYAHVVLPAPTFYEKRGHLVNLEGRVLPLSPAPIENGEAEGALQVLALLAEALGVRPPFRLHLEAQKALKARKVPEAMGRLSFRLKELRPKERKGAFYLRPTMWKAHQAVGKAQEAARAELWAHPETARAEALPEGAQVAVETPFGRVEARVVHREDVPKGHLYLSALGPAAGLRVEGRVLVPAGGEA

purified protein = substrate: NC(=O)C1=CN([C@@H]2O[C@H](COP(=O)(O)OP(=O)(O)OC[C@H]3O[C@@H](n4cnc5c(N)ncnc54)[C@H](O)[C@@H]3O)[C@@H](O)[C@H]2O)C=CC1; experiment: purified protein; format: biochemical, Escherichia coli; details: reaction started by enzyme (oxidised enzyme), ferricyanide 0.25-2 mM, pH 6.0, 30 °C, ping-pong-pong with double substrate inhibition

NC(=O)C1=CN([C@@H]2O[C@H](COP(=O)(O)OP(=O)(O)OC[C@H]3O[C@@H](n4cnc5c(N)ncnc54)[C@H](O)[C@@H]3O)[C@@H](O)[C@H]2O)C=CC1 [NADH]
Ki, app. ^NADH [1]: 22 µM
Ki, app. ^NADH [2]: 22 µM
Km [3]: 11 µM

NC(=O)c1ccc[n+]([C@@H]2O[C@H](COP(=O)(O)OP(=O)(O)OC[C@H]3O[C@@H](n4cnc5c(N)ncnc54)[C@H](O)[C@@H]3O)[C@@H](O)[C@H]2O)c1 [NAD^+]
Rate constant: NAD^+ dissociation (s^-1) [4]: 2.4 10^3
Rate constant: NAD^+ dissociation (s^-1) [5]: 2.3 10^3

NC(=O)C1=CN([C@@H]2O[C@H](COP(=O)(O)OP(=O)(O)OC[C@H]3O[C@@H](n4cnc5c(=O)[nH]cnc54)[C@H](O)[C@@H]3O)[C@@H](O)[C@H]2O)C=CC1 [d-NADH]
d-NADH:ferricyanide oxidoreductase activity of cytoplasmic membranes, 340 nm [6]: T. thermophilus membranes exhibited similar fast reaction rates

B1: E. coli respiratory complex I (NADH:ubiquinone oxidoreductase) (Escherichia coli K-12) (protein)
chain: T2 sequence (P31979 1-445)
notes: whole complex from the nuo operon, His-tagged NuoF, overproduced in E. coli, DDM-solubilised, purified by anion exchange, Ni-IDA and Source Q; with NADH-quinone oxidoreductase subunit E; NADH-quinone oxidoreductase subunit G; NADH-quinone oxidoreductase subunit C/D; NADH-quinone oxidoreductase subunit B; NADH-quinone oxidoreductase subunit I; NADH-quinone oxidoreductase subunit A; NADH-quinone …
Km (purified protein): 11 µM
